{"source": "patent US20250381324A1", "about": "“CD31 MIMETIC COATING FOR ENDOVASCULAR STENT” (INSERM (Institut National de la Santé et de la Recherche …, priority 2021, published 2025)", "key": {"[1]": {"system": "Primary Human Aortic Endothelial Cells (HAEC)", "experiment": "Human aortic endothelial cells grown 48 h on bare or peptide-coated nitinol disks; F-actin / CD31 staining and image analysis", "format": "cell-based", "protocol": "Nitinol disks are left untouched (bare metal) or coated with a domain 1, domain 2 or domain 1 and 2 CD31 analog peptide. The tested peptide is grafted to the nitinol disk following a polydopamine, DBCO-PEG4-amine and azide CD31 derivative peptide using a sequential dip-coating layering procedure. After this step, all the disks are incubated with Human aortic endothelial cells for 48 h. Disks are then rinsed and the cells are fixed in a formalin solution before staining. The staining is fulfilled using phalloidin coupled to AlexaFluor®488 dye (green fluorescence for Actin), DAPI is used for DNA staining and a domain 1 CD31 antibody coupled to APC is used for external Domain 1 staining. The cell adhesion and Actin/CD31 expression was evaluated by image analysis of the surface after staining.\nIn particular, as per FIG. 2 the bare or coated nitinol disks were placed at the bottom of culture wells. Primary Human Aortic Endothelial Cells (HAEC) were allowed to grow on the disks for a period of 48 h. The disks were thereafter rinsed with phosphate buffered saline, fixed in formalin, and processed for fluorescence microscopy. Disk-adherent cells were immersed in a solution comprising Hoechst 33342 (1 μg/ml, to stain the nuclei), phalloidin coupled to AlexaFluor®488 dye (0.5 μM, to stain F-actin fibers) and a monoclonal antibody directed against CD31 domain 1, coupled to allophycocyanin (to detect the presence and localization of intact CD31 at the cell surface) for 1 hour at 37° C., washed and mounted face down on glass bottom imaging chambers for imaging with an inverted fluorescence microscope.\nSurface type is indicated on the Y axis, data are expressed as average±SD (N=6/surface type). Each dot corresponds to a specific surface modification. The F-actin expression relates the cellular stress of the cell in presence of the exogenous material.\nIn FIG. 4 the surface type is indicated on the Y axis. Each dot corresponds to a specific surface modification. Data are expressed as “Integrated Density” average±SD (N=6/surface type). CD31 expression relates the capacity of endothelial cells to adopt a physiologic phenotype while growing on a given substrate. An important variability is observed in terms of CD31 expression by HAEC according to the surface modification of the nitinol disks.\nThe “mirror” bars of FIG. 5 report the average Integrated Density of F-actin (left) and of CD31 (right) staining for each of the indicated (Y axis) type of peptide coated onto the disk surface and bare disks. Data are sorted (from the top to the bottom) according to the increase in the cellular stress (actin expression) of each coating. As shown on the figure, the degree of cellular stress (as detected by a high actin expression) and impaired endothelial phenotype (documented by a low CD31 expression) is evident on HAEC grown onto bare metal disks.\nThe data shown in FIG. 6 are expressed as the ratio between CD31 and F-actin expression.\nThe effect of different peptides, belonging to the different groups, were tested in batches following the same protocol as in FIG. 6. Different peptides from each group were tested in batches and the effect of individual peptides was repeatedly assessed in separate experiments. Data from all experiments were obtained by computer-assisted analysis of images of the disk side covered with endothelial cells, captured in the blue, green and red channel of an inverted fluorescence microscope. The functional score of the peptides belonging to the different groups was calculated by multiplying the number of cells (as detected by the number of blue, Dapi+ nuclei) for the integrated density of CD31 expression (red signal provided by the binding of a mouse anti-human CD31 monoclonal antibody, clone 9G11, conjugated allophycocyanin) and their product being divided for the integrated density of the F-actin polymerization (Phalloidin coupled to a green fluorochrome). […]"}, "[2]": {"system": "aneurysm-carrying artery and abdominal aorta", "experiment": "Flow-diverter stents (CFD) implanted in rabbit aneurysm-carrying artery and abdominal aorta; SEM and histopathology (Example 3)", "format": "in vivo, New Zealand White rabbits", "protocol": "Flow-diverter stents (CFD) are braided meshes made of nitinol, from Sinomed. They are coated by one of the following coatings: • 1. SP1072 peptide according to the invention, or • 2. Hydrophilic polymer eG NTMA (obtained from the electrografting of N-[Tris (hydroxymethyl) Methyl]Acrylamide).\n• 1) Transfer each stent in a 5 mL polypropylene round bottom tube (Bd Falcon Ref 352063). Insure the stent drops at the bottom of the tube. • 2) Add 4.5 mL of a 2 mg/mL PDA solution per tube. Homogenize each tube on a rotary wheel (approx. 20 rpm) overnight (18+/−2 h) at room temperature and protect from light. […] The stent color should change from silver to brown/black. After the incubation period the solution will become black with small PDA aggregates • 3) Transfer each stent in a new tube and rinse 3-times with demineralized water. homogenize on the rotary wheel 5 min at each rinse. • 4) Leave the last rinse and sonicate the tube for at least 30 s to discard any remaining PDA chunk. • 5) Transfer each stent in a 2 mL—Eppendorf tube containing 1.8 mL of DBCO (300 μM) per tube. Homogenize each tube on a rotary wheel (approx. 20 rpm) overnight at room temperature and protect from light. • 6) Transfer each stent in a new tube and rinse 3-times with demineralized water. Homogenize on the rotary well 5 min at each rinse. • 7) Transfer each stent in a 2 mL—Eppendorf tube containing 1.8 mL of CD31 peptide (50 μg/mL) per tube. Homogenize each tube on a rotary wheel (approx. 20 rpm) for 2 hours at room temperature and protect from light. • 8) Transfer each stent in a new tube and rinse 3-times with demineralized water. Homogenize on the rotary well 5 min at each rinse. • 9) Soak each stent in absolute Ethanol for 5 seconds before letting them dry.\nComparative hydrophilic polymer eG NTMA-coated flow diverter stents were obtained via the following protocol: • (1) Cleaning pretreatment: The stent frames were sonicated in acetone, ethanol, and water for injection for 10 min, respectively. • (2) Electro-grafting solution preparation: N-[tris(hydroxymethyl)methyl]acrylamide, concentration 0.30 M; NaNO3, concentration 0.05 M; 4-nitrophenyl tetrafluoroborate diazonium salt, 0.005 M; the remaining amount is DMSO solvent. • (3) Electro-grafting process: the pretreated stents were used as the working electrode, and a platinum foil was used as the counter electrode, which was submerged in the electro-grafting solution, and a linear sweep voltage between −0.1 and −3.0 V and back was applied between the two electrodes with a voltage scan rate of 0.05 V/s for 10 cycles. • (4) Coating smoothing and drying: the electrografted scaffold was smoothed in acetone (2 L) with nitrogen bubbling (rate 0.5-10 L/min) for 10 min and placed in a vacuum drying oven at 40° C. for 2 h.\nA total of 8 healthy New Zealand White rabbits (including 2 spare animals), male and female, weighing about 3 kg, were included in this study. A total of 3 observation time points of 7 days, 30 days and 60 days postoperatively were set. The experiment was divided into two steps: 1) aneurysm animal modeling; 2) implantation of a dense mesh stent in the aneurysm-carrying artery and abdominal aorta for each animal. The stent implantation in the aneurysm-carrying artery was to be used to examine the safety and effectiveness of the stent in treating aneurysms, and the stent implantation in the abdominal aorta, covering a pair of lumbar arteries, was to be used to examine the safety of the tested stent.\nStep 1) (aneurysm animal modeling) was performed as follows: • (a) The rabbit is placed supine on the operating table and the neck is shaved. […] Every 20 minutes, saline drips were injected into the rabbit's cervical vessels and vagus nerve to keep them moistened. […] Continue to use antibiotics for 3-5 days after surgery. […]"}, "[3]": {"system": "aneurysm-carrying artery and abdominal aorta", "experiment": "Flow-diverter stents (CFD) in rabbits without aspirin or clopidogrel after implantation (Example 4)", "format": "in vivo, New Zealand White rabbits", "details": "day 7, n=3, no aspirin nor clopidogrel after implantation; preliminary", "description": "The same materials and protocol as in Example 3 were used, except that: • Only 3 animals were used for each condition, and • No aspirin nor clopidogrel was given to animals after the implantation."}, "[4]": {"details": "day 7, aneurysm-carrying artery"}, "[5]": {"details": "day 60, aneurysm-carrying artery"}}, "note": "Square brackets hold non-standard residues; d marks the D form. Primed or numbered codes have the meaning given here. Ends that are not written are not given here. Lys(N3) = [N-]=[N+]=NCCCC[C@H](N)C(=O)O; PEG4′ = not defined here"}
{"substance": "YKSTVIVNNKEKTTAE-PEG4-K(N3)-CONH2 (YKSTVIVNNKEKTTAE[PEG4′][Lys(N3)]-NH2) [SP1072]", "values": [{"measurement": "CD31/Actin score", "setting": "[1]; Example 2, FIG. 25, repeated experiments (SP547, SP548 only one measure)", "result": "significantly higher than those obtained by the bare metal disks or by disks coated with PDA alone"}, {"measurement": "CD31 expression (physiologic endothelial phenotype), Integrated Density", "setting": "[1]; HAEC 48 h on coated nitinol disks, compared to other modified disks and bare controls, FIGS. 2, 4, 5", "result": "evident positive effect in terms of CD31 expression"}, {"measurement": "ratio between CD31 and F-actin expression", "setting": "[1]; compared to bare metal and disks coated with PDA only, FIG. 6", "result": "higher CD31/actin ratio"}, {"measurement": "endothelialization of inner surface of flow-diverter stents (conclusion)", "setting": "[2]; Example 3 overall", "result": "promotes early endothelialization on the inner surface of the flow-diverter stents"}, {"measurement": "endothelialization of the device at sites other than the aneurysm entry (conclusion)", "setting": "[2]; Example 3 overall", "result": "endothelialization of the device is fast and complete without apparent inflammation nor neointima"}, {"measurement": "neo arterial wall at the entry of the aneurysm sac (conclusion)", "setting": "[2]; Example 3 overall", "result": "promotes the growth of an organized, blood-impermeable neo arterial wall at the entry of the aneurysm sac"}, {"measurement": "neo-wall covering the aneurysmal neck (histopathology)", "setting": "[2]; [4]", "result": "compact and rich in extracellular matrix (dark grey) and void of inflammation (no black nuclei) or thrombosis"}, {"measurement": "organization of thrombus in the aneurysmal sac (histopathology)", "setting": "[2]; [4]", "result": "organized"}, {"measurement": "organization of thrombus in the aneurysmal sac (histopathology)", "setting": "[2]; [5]", "result": "very well organized"}, {"measurement": "reaction of arterial wall in contact with stent struts (histopathology)", "setting": "[2]; [5]", "result": "absence of inflammation/thrombosis of the arterial wall that is already in contact with the stent struts"}, {"measurement": "survival and thrombus after implantation", "setting": "[3]", "result": "still alive with no thrombus"}]}
